According to patent US9738628B2, “Substituted 1H-indazol-1-OL analogs as inhibitors of beta catenin/Tcf protein-protein interactions” (University of Utah Research Foundation, priority 2012, dated 2017):

What was measured:
[1] = tested on: HCT116 colon cancer cell line; experiment: MTS-based cell proliferation inhibition assay; design: species or system human; conditions: dose-dependent (FIG. 2)
β-catenin/Tcf4 = β-catenin/Tcf4 (Homo sapiens (Human), UniProt P35222); experiment: Fluorescence polarization (FP) competitive inhibition assay, β-catenin/Tcf4; type: binding; conditions: Table 2, mean ± SD (n=3)
Procedure: Experiments were performed in 96-well Microfluor 2 black plates (Waltham, Mass.), and the samples were read by a Synergy 2 plate reader (Biotek, Winooski, Vt.). […] The final reaction volume is 100 μL.

Sequence of β-catenin/Tcf4 (P35222 138-686): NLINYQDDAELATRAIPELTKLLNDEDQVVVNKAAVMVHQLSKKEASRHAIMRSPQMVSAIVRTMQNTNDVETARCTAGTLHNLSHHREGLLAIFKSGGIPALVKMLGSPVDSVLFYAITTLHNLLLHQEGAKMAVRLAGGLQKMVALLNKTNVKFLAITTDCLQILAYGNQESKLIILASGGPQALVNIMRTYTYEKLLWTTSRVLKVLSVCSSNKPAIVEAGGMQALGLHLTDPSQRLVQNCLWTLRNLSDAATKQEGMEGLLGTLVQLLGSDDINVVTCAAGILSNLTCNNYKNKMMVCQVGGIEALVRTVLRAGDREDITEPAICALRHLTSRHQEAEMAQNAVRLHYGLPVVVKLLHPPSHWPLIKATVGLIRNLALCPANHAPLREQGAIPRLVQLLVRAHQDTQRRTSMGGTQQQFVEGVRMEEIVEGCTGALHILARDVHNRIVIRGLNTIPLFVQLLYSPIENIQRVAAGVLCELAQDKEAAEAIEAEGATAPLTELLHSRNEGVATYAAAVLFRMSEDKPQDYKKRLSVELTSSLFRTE

Q: “3-(2-(1-hydroxy-1H-indazol-5-yl)ethyl)-1,2,4-oxadiazole-5(4H)-thione [Compound 14]” was tested. Which “inhibition of growth of colon cancer cell HCT116” value [1] did it give?
A: Its value is “inhibit the proliferation”.

Q: How did the Ki (β-catenin/Tcf4) turn out when “3-((1-hydroxy-1H-indazol-5-yl)methyl)-1,2,4-oxadiazol-5(4H)-one [Compound 10]” was run?
A: Its Ki is 125 ± 1.3 µM.

Q: With “5-(2-(2H-tetrazol-5-yl)ethyl)-1H-indazol-1-ol [Compound 12]” as the substance, how does the “inhibition of growth of colon cancer cell HCT116” value [1] read?
A: The value was “inhibit the proliferation”.
